Patent US20090264469A1, “NOVEL DICARBOXYLIC ACID DERIVATIVES” (BIO-PROJET, priority 2004, published 2009)

How the values were obtained:
Human S1P1 receptor = target: T1, Human S1P1 receptor (Homo sapiens, UniProt P21453); experiment: GTP-γ-35S binding, agonist activity on S1P1 receptor; type: biochemical; conditions: for EC50: membranes of transfected HEK 293 or CHOK1 cells, [35S]GTP-γ-S binding; for intrinsic activity (i.a.) S1P1: relative to the maximal stimulation elicited by S1P
T1 construct: expressed in transfected cells; host or cells: HEK 293 or CHOK1 cells (membranes)
T1 sequence (P21453 whole entry): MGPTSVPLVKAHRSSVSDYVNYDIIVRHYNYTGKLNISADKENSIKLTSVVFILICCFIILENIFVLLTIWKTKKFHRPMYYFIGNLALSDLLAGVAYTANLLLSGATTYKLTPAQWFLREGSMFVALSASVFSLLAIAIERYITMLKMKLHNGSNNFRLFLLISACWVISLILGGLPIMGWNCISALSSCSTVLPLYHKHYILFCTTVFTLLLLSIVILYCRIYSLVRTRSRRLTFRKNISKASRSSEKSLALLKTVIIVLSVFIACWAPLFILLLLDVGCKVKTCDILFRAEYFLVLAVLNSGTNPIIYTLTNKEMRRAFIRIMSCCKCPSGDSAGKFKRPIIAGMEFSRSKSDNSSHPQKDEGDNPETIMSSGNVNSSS
Description: (§1) Human S1P1-5 receptor subtypes were stably expressed in HEK 293 or CHOK1 cells following transfection with corresponding plasmid constructs. Although the native cells somewhat respond to S1P, the level of expression and responsiveness of the antibiotic-resistant transfected cell lines that were selected is much higher.
(§2) When cultivated cells reached 80% confluence, they were collected and, after lysis, cell membranes were collected by centrifugation and washed in buffer containing antiproteases.
(§3) GTP-γ-35 S binding was performed using ˜5 μg protein of cell membranes suspended in 50 mM tris-HCl pH 7.5 containing 10 mM Mg Cl2, 100 mM NaCl and 10 μM GDP. The radioligand was 0.025 nM [35S] GTP-γ-S and non specific binding determined in the presence of 10 μM non-radioactive GTP-γ-S. S1P and receptor agonists enhance the specific binding whereas inverse agonists reduce it. The maximal stimulation elicited by S1P was taken as a reference to define full or partial agonism and calculate the intrinsic activity (i.a.) of compounds.

Human S1P3 receptor = target: T2, Human S1P3 receptor (Homo sapiens, UniProt Q99500); experiment: GTP-γ-35S binding, agonist activity on S1P3 receptor; type: biochemical; conditions: for EC50: membranes of transfected HEK 293 or CHOK1 cells, [35S]GTP-γ-S binding; for intrinsic activity (i.a.) S1P3: relative to the maximal stimulation elicited by S1P
T2 construct: expressed in transfected cells; host or cells: HEK 293 or CHOK1 cells (membranes)
T2 sequence (Q99500 whole entry): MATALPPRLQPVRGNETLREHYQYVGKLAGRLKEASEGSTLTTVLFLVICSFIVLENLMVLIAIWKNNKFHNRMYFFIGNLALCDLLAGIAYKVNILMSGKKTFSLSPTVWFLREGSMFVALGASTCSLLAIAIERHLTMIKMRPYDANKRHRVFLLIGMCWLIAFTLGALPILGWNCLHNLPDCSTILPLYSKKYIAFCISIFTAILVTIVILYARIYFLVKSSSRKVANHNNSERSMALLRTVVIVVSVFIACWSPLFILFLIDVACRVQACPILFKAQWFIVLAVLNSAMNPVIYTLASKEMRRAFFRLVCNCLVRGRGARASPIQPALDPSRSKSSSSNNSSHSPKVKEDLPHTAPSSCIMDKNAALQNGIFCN
Description: as §1, §2, §3

Human S1P2 receptor = target: T3, Human S1P2 receptor (Homo sapiens, UniProt O95136); experiment: GTP-γ-35S binding, agonist activity on S1P2 receptor; type: biochemical; conditions: for EC50: membranes of transfected HEK 293 or CHOK1 cells, [35S]GTP-γ-S binding; for intrinsic activity (i.a.) S1P2: relative to the maximal stimulation elicited by S1P
T3 construct: expressed in transfected cells; host or cells: HEK 293 or CHOK1 cells (membranes)
T3 sequence (O95136 whole entry): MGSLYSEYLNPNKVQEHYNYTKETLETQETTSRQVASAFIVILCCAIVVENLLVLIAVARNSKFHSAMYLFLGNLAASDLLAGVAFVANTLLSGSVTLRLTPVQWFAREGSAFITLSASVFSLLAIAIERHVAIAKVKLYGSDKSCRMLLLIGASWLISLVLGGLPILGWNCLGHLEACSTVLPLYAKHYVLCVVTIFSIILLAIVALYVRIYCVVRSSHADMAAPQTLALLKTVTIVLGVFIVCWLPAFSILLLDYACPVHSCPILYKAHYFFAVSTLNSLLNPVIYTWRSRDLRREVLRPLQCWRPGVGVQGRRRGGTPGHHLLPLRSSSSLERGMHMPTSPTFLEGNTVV
Description: as §1, §2, §3

circulating lymphocytes = conditions: in vivo; cited from earlier work
[1] = J. Am. Soc. Nephrol., 13, 1073, 2002; cited from earlier work

Row | EC50 (Human S1P1 receptor) | intrinsic activity (i.a.) S1P1 (Human S1P1 receptor) | EC50 (Human S1P3 receptor) | intrinsic activity (i.a.) S1P3 (Human S1P3 receptor) | EC50 (Human S1P2 receptor) | intrinsic activity (i.a.) S1P2 (Human S1P2 receptor) | SMILES | circulating lymphocytes (circulating lymphocytes) | adverse event [1]
1 | 6 nM | 1 | > 1000 nM | ~0.3 | 4 nM | 1 | CCCCCCCCCc1ccc(CNC2CCC(C(=O)O)(C(=O)O)C2)cc1 (centres unmarked) [Example 3, 3-(4-nonylbenzylamino)cyclopentane-1,1-dicarboxylic acid] |  | 
2 | 13 nM | 1 | > 1000 nM | ~0.3 | 5 nM | 1 | CCCCCCCCCCc1ccc(CNC2CCC(C(=O)O)(C(=O)O)C2)cc1 (centres unmarked) [Example 12, 3-(4-decylbenzylamino)cyclopentane-1,1-dicarboxylic acid] |  | 
3 |  |  |  |  |  |  | CCCCCCCCc1ccc(CCC(N)(CO)CO)cc1 [FTY 720] | decrease | transient asymptomatic bradycardia
